Test results from patent US9914698B2, “Stearoyl amino acid salt and preparation method and application thereof” (Shanghai Jiaotong University School of Medicine, priority 2014, dated 2018).
Like-named read-outs stand apart in the source and are kept apart here. Marks after values point to notes of the source that are not given here.

Assays:
[1] = Absorption kinetics after intragastric administration; assay type: in vivo; details: both sexes, Sprague-Dawley (SD), rat, blood; SD rats, oral 200 mg/kg
Procedure: Ten SD rats weighing 150-180 g were randomly divided into two groups, each comprising five, with males and females combined. After intragastric administration of 200 mg/kg of saline solution containing NsTyr and NsTyr-2K, the average blood concentration-time curve thereof was respectively shown in FIG. 2.

[2] = Equilibrium solubility, shake-flask method; assay type: physicochemical
Procedure: (§1) The shake-flask method was used to test the equilibrium solubility of NsTyr, NsTyr-2K, NsTyr-2Na in water at 37° C. […] The apparent lipid-water distribution coefficient log p of NsTyr-2K, NsTyr-2Na was respectively 1.512 and 1.477. Under different pHs, see Table 1 for the equilibrium solubility test data of NsTyr-2K, NsTyr-2Na; and see Table 2 for the apparent lipid-water distribution coefficient of NsTyr-2K and NsTyr-2Na.

[3] = Stability assessment (influencing factors, acceleration and long-term tests, Chinese Pharmacopoeia 2010); assay type: physicochemical; details: high temperature, high humidity, strong light
Procedure: Considering that prototype drug stearoyl amino acid tend to absorb moisture, cake and become yellowish during long-term storage, the stearoyl amino acid is now converted into a form of active salt thereof. And the stability of NsTyr-2K and NsTyr-2Na was tested as required for bulk pharmaceutical chemicals according to the People's Republic of China Pharmacopoeia 2010.

TAU transgenic mice [4] = assay: Open-field test; assay type: in vivo; details: medium-dose (30 mg/kg) and high-dose (45 mg/kg)
Source text: (§2) Materials for open-field test: a spontaneous activity watch box (80×80×30), on top of which is furnished with a fluorescent lamp as a lighting system, and on the center of whose roof is a CCD camera connected to the computer; and an ethological computer image analysis system (SHANGHAI MOBILEDATUM TECH INFORMATION CO. LTD).
(§3) Laboratory animals: C57BL/6I (from Jackson Lab) (APP/PS1/TAU transgenic mice) in C57BL/6J (TAU transgenic mice). All APP/PS1/TAU transgenic mice and TAU transgenic mice belong to the mouse disease model as for Alzheimer's disease.
(§4) [1] Priscila Cagni, Mrilia Barros. Cannabinoid type I receptor ligands WIN 55,212-2 and AM251 alter anxiety-like behaviors of marmoset monkeys in an open-field test. Behavioural Brain Research 2013; 240:91-94.
(§5) Principles: Open-field test is useful for evaluation of mouse anxiety and behavior probing the outside world. By nature mice are capable of both exploring the unknown territory and protecting themselves from damage due to external potential risks. Open-field test, therefore, can test such mouse capabilities by recording their duration of stay at the marginal area and the central area (where anxiety occurs) in an open field. Meanwhile, the test as such can also measure mouse movement capabilities such as speed.

[5] = test system: APP/PS1/TAU transgenic mice; assay: Open-field test; assay type: in vivo
Source text: as §2, §3, §4, §5

TAU transgenic mice [6] = assay: High plus maze test; assay type: in vivo
Source text: (§6) Materials for high plus maze: consisting of two opening arms opposite to each other and two closing arms opposite to each other, a central platform connecting the aforesaid arms, and a short, 1-cm-high damper along the edges of the opening arms (to prevent animals from slipping off the maze in the process of exploring), with the floors of the four arms and the central platform being black; the floor of the maze adjusted to be 50 cm away from the laboratory ground; and an ethological computer image analysis system (SHANGHAI MOBILEDATUM TECH INFORMATION CO. LTD).
as §3
(§7) Principles: With a couple of opening arms and another couple of closing arms, the high plus maze is useful for assessment of animal anxiety by taking advantage of animal tendency to explore a new extraneous environment as well as their fear of high and open extending arms, which form a behavioral conflict. Rodents tend to move within closing arms due to their fondness of dark, but will, out of curiosity, go into opening arms and move around there. When stimulated by a novel environment, they will engender an impulse to explore and a fear at the same time.

[7] = test system: APP/PS1/TAU transgenic mice; assay: High plus maze test; assay type: in vivo; details: different doses
Source text: as §6, §3, §7

[8] = test system: APP/PS1 TAU transgenic mouse; assay: Rota rod test; assay type: in vivo, mice; details: high-dose
Source text: Materials for rota rod test: rotary rod type fatigue tester YLS-4C (SHANGHAI MOBILEDATUM TECH INFORMATION CO. LTD).
as §3
Principles: Rota rod is useful for studying the effects of drugs upon movement coordination and fatigue resistance.

[9] = Apparent lipid-water distribution coefficient; assay type: physicochemical
Procedure: as §1

TAU transgenic mice [10] = assay: Morris water maze test (place navigation and spatial probe); assay type: in vivo
Source text: (§8) Materials for water maze test: a constant-temperature swimming pool, a platform for mice, and an ethological computer image analysis system (SHANGHAI MOBILEDATUM TECH INFORMATION CO. LTD).
as §3
(§9) Principles: Morris water maze test programs comprise two parts: place navigation test and spatial probe test. The former lasted a few days; each day mice were respectively put into water from four entries several times, and the time they spent seeking the platform hidden underwater (escape latency) was recorded. When place navigation test ended, the platform was removed. The latter recorded the mouse swimming trajectory after the mice were put into water from any chosen entry, and assessed their previous memory of the platform.

[11] = test system: APP/PS1/TAU transgenic mice; assay: as above; assay type: in vivo
Source text: as §8, §3, §9

[12] = test system: gerbil model with global ischemia reperfusion injury; assay: Neurobehavioral scores of acute cerebral ischemia reperfusion model; assay type: in vivo; details: positive control group, dose not given; ischemic model group 3.1+/−0.32
Source text: Taking N-stearoyl amino acid potassium NsTyr-2K as an example, a gerbil model with global ischemia reperfusion injury was used to assess the protective role of NsTyr-2K against neurobehavioral disorder caused by cerebral ischemia-reperfusion injury by examining the changing behavioral indexes such as spatial, learning and cognitive functions in the perspective of overall animals during passive dark avoidance test and Morris water maze test.

obese mouse model [13] = assay: Collection and observation of fat and liver tissues of obese mice; assay type: in vivo, C57BL/6 mice; details: 100 mg/kg/day
Source text: 2. Method: After administration test in Embodiment 8, the mice were denied food overnight. Their abdominal cavity was opened to observe abdominal fat content in each group of the mice. Epididymal fat, perirenal fat and liver were separated and weighed.

obese mouse model [14] = assay: Administration test in obese mouse model (weight, food intake); assay type: in vivo, C57BL/6 mice
Procedure: 2. Method: 60 C57BL/6 mice (aged 3 weeks, male, with a weight of 8.3 g each) were adaptively fed with 12% kcal normal diet for one week, and randomly divided into 6 groups, each consisting of 10 mice. One group (ND) continued to be fed with normal diet, the rest five groups (HFD I˜V) were fed with 45% kcal high-fat diet.
In the whole test process the mice kept raised in the following environment: temperature: 23±3° C.; humidity: 50±5%; bright and dim alternating cycle: 12 h/12 h; freely available to diet and drinking water in the whole process.
2. Method: ND and HFD I were respectively taken as normal and high-fat diet blank control groups, and were treated with 0.5% sodium carboxymethyl cellulose solution (5 ml/kg/day); HFD II˜IV were taken as groups of recipients, and were treated with NST-2K (20, 60, 100 mg/kg/day); HFD V was taken as a positive control group, and treated with Orlistat (100 mg/kg/day). All the above drugs dissolved in aqueous solution of 0.5% sodium carboxymethyl cellulose and were administered. The administration remained four weeks. In each week average weight and food intake were kept in record until the phase of administration ended.

obese mouse model [15] = assay: H&E staining of fat and liver tissue of obese mice; assay type: in vivo, C57BL/6 mice
Procedure: 2. Method: Epididymal fat and liver were fixed in 10% neutral formaldehyde solution for 48 h. After paraffin embedding they were made into […] of slices, and stained with hematoxylin-eosin (H&E staining). Light microscope was used to observe the size of fat cells, the structure of liver cells and adipose accumulation.

[16] = day 5, medium-dose and high-dose group, *P<0.05

CCCCCCCCCCCCCCCCCC(=O)N[C@@H](Cc1ccc(O)cc1)C(=O)O [NsTyr, N-stearoyl tyrosine]
AUC(0-inf) [1]: 140 ng·h/mL
AUC(0-t) [1]: 130 ng·h/mL
Cmax [1]: 110 ng/mL
MRT last [1]: 1.38 h
Tmax [1]: 0.75 h
half-life [1]: 1.49 h
solubility thermodynamic ([2]; thermodynamic from solid, water, 37° C., read-out: equilibrium solubility in water): < 1000 µg/mL

CCCCCCCCCCCCCCCCCC(=O)N[C@@H](Cc1ccc(O)cc1)C(=O)[O-].CCCCCCCCCCCCCCCCCC(=O)N[C@@H](Cc1ccc(O)cc1)C(=O)[O-].[Na+].[Na+] [NsTyr-2Na]
stability [3]: stable properties
Equilibrium solubility in buffer solution ([2]; pH 2.0): 66.938 µg/mL
Equilibrium solubility in buffer solution ([2]; pH 3.0): 66.334 µg/mL
Equilibrium solubility in buffer solution ([2]; pH 4.0): 195.371 µg/mL
Equilibrium solubility in buffer solution ([2]; pH 5.0): 232.102 µg/mL
Equilibrium solubility in buffer solution ([2]; pH 6.0): 274.629 µg/mL
Equilibrium solubility in buffer solution ([2]; pH 7.0): 318.016 µg/mL
Equilibrium solubility in buffer solution ([2]; pH 7.4): 374.484 µg/mL
Equilibrium solubility in buffer solution ([2]; pH 8.0): 463.902 µg/mL
Equilibrium solubility in buffer solution ([2]; pH 9.0): 512.644 µg/mL
duration of stay in the central area (TAU transgenic mice [4]): reduce their duration of stay in the central area
movement ability (journey) (TAU transgenic mice [4]): could enhance transgenic mouse movement ability
duration of stay at the central activity area ([5]; 15, 30, 45 mg/kg): could not be changed
mouse journey ([5]; high-dose 45 mg/kg): could increase mouse journey
low-anxiety state (TAU transgenic mice [6]; different doses): the low-anxiety state was changed
low-anxiety state (TAU transgenic mice [6]; high-dose, compared with the animal model group): significant difference
low anxiety state [7]: did not change
movement coordination [8]: could obviously improve the phenomenon
Apparent lipid-water distribution coefficient LogP [9]: 1.477
Apparent lipid-water distribution coefficient Ko/w ([9]; buffer pH 2.0): 49.913
Apparent lipid-water distribution coefficient LogP ([9]; buffer pH 2.0): 1.698
Apparent lipid-water distribution coefficient Ko/w ([9]; buffer pH 3.0): 28.980
Apparent lipid-water distribution coefficient LogP ([9]; buffer pH 3.0): 1.462
Apparent lipid-water distribution coefficient Ko/w ([9]; buffer pH 4.0): 15.224
Apparent lipid-water distribution coefficient LogP ([9]; buffer pH 4.0): 1.183
Apparent lipid-water distribution coefficient Ko/w ([9]; buffer pH 5.0): 18.710
Apparent lipid-water distribution coefficient LogP ([9]; buffer pH 5.0): 1.272
Apparent lipid-water distribution coefficient Ko/w ([9]; buffer pH 6.0): 19.963
Apparent lipid-water distribution coefficient LogP ([9]; buffer pH 6.0): 1.300
Apparent lipid-water distribution coefficient Ko/w ([9]; buffer pH 7.0): 31.436
Apparent lipid-water distribution coefficient LogP ([9]; buffer pH 7.0): 1.497
Apparent lipid-water distribution coefficient Ko/w ([9]; buffer pH 7.4): 29.286
Apparent lipid-water distribution coefficient LogP ([9]; buffer pH 7.4): 1.467
Apparent lipid-water distribution coefficient Ko/w ([9]; buffer pH 8.0): 28.704
Apparent lipid-water distribution coefficient LogP ([9]; buffer pH 8.0): 1.458
Apparent lipid-water distribution coefficient Ko/w ([9]; buffer pH 9.0): 21.872
Apparent lipid-water distribution coefficient LogP ([9]; buffer pH 9.0): 1.340
latency in place navigation test (TAU transgenic mice [10]; day 4, high-dose group vs model group): significant difference
latency in place navigation test (TAU transgenic mice [10]; [16]): significant difference
swimming time percentage in the third quadrant (probe test) (TAU transgenic mice [10]; day 5, platform removed, medium-dose and high-dose group): statistical significance
spatial probing (swimming trajectory, FIG. 11) (TAU transgenic mice [10]; spatial probe test): both the medium- and high-dose groups could improve their spatial probing
latency in place navigation test ([11]; day 4, dosing group vs model group): no significant difference
latency in place navigation test [11, 16]: significant difference
swimming time percentage in the third quadrant (probe test) ([11]; day 5, platform removed, high-dose group): statistical significance
spatial probing (swimming trajectory, FIG. 11) ([11]; spatial probe test): only the high-dose group could enhance their spatial probing

COCCOC(=O)C1=C(C)NC(C)=C(C(=O)OC(C)C)C1c1cccc([N+](=O)[O-])c1 (stereo not drawn) [nimotop, reference compound]
neurobehavioral score [12]: 1.12+/−0.31

CCCCCCCCCCC[C@@H](C[C@@H]1OC(=O)[C@H]1CCCCCC)OC(=O)[C@H](CC(C)C)NC=O [Orlistat, reference compound]
perirenal fat percentage quality (obese mouse model [13]; HFD I blank 1.63 ± 0.10): 1.32 ± 0.06 g/100 g weight
Epididymal fat percentage quality (obese mouse model [13]; HFD I blank 2.99 ± 0.08): 2.66 ± 0.07 g/100 g weight
Liver percentage quality (obese mouse model [13]; HFD I blank 3.51 ± 0.07): 3.48 ± 0.06***^ g/100 g weight
obese mouse weight (obese mouse model [14]; 100 mg/kg/day, four weeks): can inhibit weight gain in obese mice
appetite (average daily food intake) (obese mouse model [14]; 4-week administration, high-fat diet groups): neither NST-2K nor Orlistat suppressed appetite
size of epididymal fat cells (obese mouse model [15]; HFD III, HFD IV (NST-2K 60, 100 mg/kg/day) and HFD V (Orlistat 100 mg/kg/day) vs HFD I): evidently smaller fat cells than HFD I
fat accumulation in liver tissues (obese mouse model [15]; as the administration dose increased, vs HFD I): the accumulation began to ease
